Laboratory results published in US4409210A, “Antibiotic compound” (priority 1982, dated 1983).
In brackets after ≈: the same amount, converted by molar mass. Where two headings read alike, the source gives them in different places.

How the values were obtained:
Type in all cases: cell-based
[1] = test system: Bacillus subtilis ATCC 6633; assay: MIC, serial two-fold dilution method (aerobic)
[2] = test system: Fusobacterium varium ATCC 8501; assay: MIC, serial two-fold dilution method (anaerobic)
[3] = test system: Clostridium perfringens A22787; assay: microbe, parasite or virus in culture; settings: Clostridium perfringens, A22787, read-out: minimum inhibitory concentration (MIC)
[4] = test system: Staphylococcus aureus Smith; assay: MIC, serial two-fold dilution method (aerobic); settings: read-out: minimum inhibitory concentration (MIC)
[5] = test system: Staphylococcus aureus BX-1633; assay: MIC, serial two-fold dilution method (aerobic)
[6] = test system: Bacteroides fragilis A20926; assay: MIC, serial two-fold dilution method (anaerobic)
[7] = test system: Veillonella parvula A20010; assay: MIC, serial two-fold dilution method (anaerobic)
[8] = test system: Staphylococcus aureus 209P; assay: MIC, serial two-fold dilution method (aerobic); settings: read-out: minimum inhibitory concentration (MIC)
[9] = test system: Bacteroides fragilis A21900; assay: MIC, serial two-fold dilution method (anaerobic)
[10] = test system: Clostridium perfringens A9635; assay: microbe, parasite or virus in culture; settings: Clostridium perfringens, A9635, read-out: minimum inhibitory concentration (MIC)
[11] = test system: Pseudomonas aeruginosa D-113; assay: MIC, serial two-fold dilution method (aerobic)
[12] = test system: Fusobacterium necrophorum A20013; assay: MIC, serial two-fold dilution method (anaerobic)
[13] = test system: Staphylococcus aureus A22421; assay: MIC, serial two-fold dilution method (aerobic)
Proteus vulgaris A9436 = assay: MIC, serial two-fold dilution method (aerobic)
[14] = test system: Staphylococcus aureus A20610; assay: MIC, serial two-fold dilution method (aerobic)
[15] = test system: Staphylococcus aureus A20239; assay: MIC, serial two-fold dilution method (aerobic)
Sarcina lutea PCI-1001 = assay: MIC, serial two-fold dilution method (aerobic); settings: Micrococcus luteus
[16] = test system: Bacteroides fragilis CUH-9; assay: MIC, serial two-fold dilution method (anaerobic)
[17] = test system: Propionibacterium acnes A22650; assay: MIC, serial two-fold dilution method (anaerobic); settings: Cutibacterium acnes
[18] = test system: Peptostreptococcus anaerobius A21905; assay: MIC, serial two-fold dilution method (anaerobic)
[19] = test system: Bacteroides fragilis A20928-1; assay: MIC, serial two-fold dilution method (anaerobic)
[20] = test system: Staphylococcus aureus #193; assay: MIC, serial two-fold dilution method (aerobic); settings: read-out: minimum inhibitory concentration (MIC)
[21] = test system: Bacteroides fragilis A22695; assay: MIC, serial two-fold dilution method (anaerobic)
[22] = test system: Clostridium ramosum A21970; assay: MIC, serial two-fold dilution method (anaerobic); settings: Thomasclavelia ramosa
Proteus mirabilis A9554 = assay: MIC, serial two-fold dilution method (aerobic)
[23] = test system: Peptococcus magnas A21676; assay: MIC, serial two-fold dilution method (anaerobic); settings: read-out: minimum inhibitory concentration (MIC)
[24] = test system: Klebsiella pneumoniae D-11; assay: MIC, serial two-fold dilution method (aerobic)
[25] = test system: Bacteroides fragilis A22533; assay: MIC, serial two-fold dilution method (anaerobic)
[26] = test system: Bacteroides fragilis CUH-24; assay: MIC, serial two-fold dilution method (anaerobic)

CC[C@H]1OC(=O)[C@H](C)[C@@H](O[C@H]2C[C@@](C)(OC)[C@@H](O)[C@H](C)O2)[C@H](C)[C@@H](O[C@@H]2O[C@H](C)C[C@H](N(C)C)[C@H]2O)[C@](C)(O)C[C@@H](C)C(=O)[C@H](C)[C@@H](O)[C@]1(C)O [Erythromycin]
MIC ([1]; ATCC6633, Bacillus subtilis ATCC 6633, Mueller-Hinton agar, inoculum 10^4, read-out: minimum inhibitory concentration (MIC)): < 0.05 µg/mL
MIC ([2]; ATCC8501, Fusobacterium varium ATCC 8501, GAM agar medium, inoculum 10^7-10^8, read-out: minimum inhibitory concentration (MIC)): 1.6 µg/mL (≈ 2.18 µM)
MIC [3]: > 100 µg/mL
MIC ([4]; Staphylococcus aureus Smith, Mueller-Hinton agar, inoculum 10^4): 0.2 µg/mL (≈ 0.273 µM)
MIC ([5]; BX1633, Staphylococcus aureus BX-1633, Mueller-Hinton agar, inoculum 10^4, read-out: minimum inhibitory concentration (MIC)): 0.2 µg/mL (≈ 0.273 µM)
MIC ([6]; Bacteroides fragilis A20926, GAM agar medium, inoculum 10^7-10^8, read-out: minimum inhibitory concentration (MIC)): < 0.05 µg/mL
MIC ([7]; Veillonella parvula A20010, GAM agar medium, inoculum 10^7-10^8, read-out: minimum inhibitory concentration (MIC)): 3.1 µg/mL (≈ 4.22 µM)
MIC ([8]; Staphylococcus aureus 209P, Mueller-Hinton agar, inoculum 10^4): 0.1 µg/mL (≈ 0.136 µM)
MIC ([9]; Bacteroides fragilis A21900, GAM agar medium, inoculum 10^7-10^8, read-out: minimum inhibitory concentration (MIC)): 0.4 µg/mL (≈ 0.545 µM)
MIC [10]: 0.8 µg/mL (≈ 1.09 µM)
MIC ([11]; D113, Pseudomonas aeruginosa D-113, Mueller-Hinton agar, inoculum 10^4, read-out: minimum inhibitory concentration (MIC)): 100 µg/mL (≈ 136 µM)
MIC ([12]; Fusobacterium necrophorum A20013, GAM agar medium, inoculum 10^7-10^8, read-out: minimum inhibitory concentration (MIC)): > 100 µg/mL
MIC ([13]; Staphylococcus aureus A22421, Mueller-Hinton agar, inoculum 10^4, read-out: minimum inhibitory concentration (MIC)): 6.3 µg/mL (≈ 8.58 µM)
MIC (Proteus vulgaris A9436; Proteus vulgaris A9436, Mueller-Hinton agar, inoculum 10^4, read-out: minimum inhibitory concentration (MIC)): 100 µg/mL (≈ 136 µM)
MIC ([14]; Staphylococcus aureus A20610, Mueller-Hinton agar, inoculum 10^4, read-out: minimum inhibitory concentration (MIC)): > 100 µg/mL
MIC ([15]; Staphylococcus aureus A20239, Mueller-Hinton agar, inoculum 10^4, read-out: minimum inhibitory concentration (MIC)): 12.5 µg/mL (≈ 17 µM)
MIC (Sarcina lutea PCI-1001; PCI1001, Sarcina lutea PCI-1001, Mueller-Hinton agar, inoculum 10^4, read-out: minimum inhibitory concentration (MIC)): < 0.05 µg/mL
MIC ([16]; CUH9, Bacteroides fragilis CUH-9, GAM agar medium, inoculum 10^7-10^8, read-out: minimum inhibitory concentration (MIC)): 6.3 µg/mL (≈ 8.58 µM)
MIC ([17]; Propionibacterium acnes A22650, GAM agar medium, inoculum 10^7-10^8, read-out: minimum inhibitory concentration (MIC)): < 0.0063 µg/mL
MIC ([18]; Peptostreptococcus anaerobius A21905, GAM agar medium, inoculum 10^7-10^8, read-out: minimum inhibitory concentration (MIC)): 0.8 µg/mL (≈ 1.09 µM)
MIC ([19]; A209281, Bacteroides fragilis A20928-1, GAM agar medium, inoculum 10^7-10^8, read-out: minimum inhibitory concentration (MIC)): 0.013 µg/mL (≈ 0.0177 µM)
MIC ([20]; Staphylococcus aureus #193, Mueller-Hinton agar, inoculum 10^4): 0.4 µg/mL (≈ 0.545 µM)
MIC ([21]; Bacteroides fragilis A22695, GAM agar medium, inoculum 10^7-10^8, read-out: minimum inhibitory concentration (MIC)): 3.1 µg/mL (≈ 4.22 µM)
MIC ([22]; Clostridium ramosum A21970, GAM agar medium, inoculum 10^7-10^8, read-out: minimum inhibitory concentration (MIC)): 0.1 µg/mL (≈ 0.136 µM)
MIC (Proteus mirabilis A9554; Proteus mirabilis A9554, Mueller-Hinton agar, inoculum 10^4, read-out: minimum inhibitory concentration (MIC)): > 100 µg/mL
MIC ([23]; Peptococcus magnas A21676, GAM agar medium, inoculum 10^7-10^8): 0.8 µg/mL (≈ 1.09 µM)
MIC ([24]; D11, Klebsiella pneumoniae D-11, Mueller-Hinton agar, inoculum 10^4, read-out: minimum inhibitory concentration (MIC)): 100 µg/mL (≈ 136 µM)
MIC ([25]; Bacteroides fragilis A22533, GAM agar medium, inoculum 10^7-10^8, read-out: minimum inhibitory concentration (MIC)): 0.4 µg/mL (≈ 0.545 µM)
MIC ([26]; CUH24, Bacteroides fragilis CUH-24, GAM agar medium, inoculum 10^7-10^8, read-out: minimum inhibitory concentration (MIC)): > 100 µg/mL

CN[C@H](CC(C)C)C(=O)N[C@H]1C(=O)N[C@@H](CC(N)=O)C(=O)N[C@H]2C(=O)N[C@H]3C(=O)N[C@H](C(=O)N[C@H](C(=O)O)c4cc(O)cc(O)c4-c4cc3ccc4O)[C@H](O)c3ccc(c(Cl)c3)Oc3cc2cc(c3O[C@@H]2O[C@H](CO)[C@@H](O)[C@H](O)[C@H]2O[C@H]2C[C@](C)(N)[C@H](O)[C@H](C)O2)Oc2ccc(cc2Cl)[C@H]1O [Vancomycin]
MIC ([1]; Bacillus subtilis, ATCC6633, read-out: minimum inhibitory concentration (MIC)): 0.1 µg/mL (≈ 0.069 µM)
MIC ([2]; Fusobacterium varium, ATCC8501, read-out: minimum inhibitory concentration (MIC)): 6.3 µg/mL (≈ 4.35 µM)
MIC [3]: 0.8 µg/mL (≈ 0.552 µM)
MIC ([4]; Staphylococcus aureus): 0.8 µg/mL (≈ 0.552 µM)
MIC ([5]; Staphylococcus aureus, BX1633, read-out: minimum inhibitory concentration (MIC)): 0.8 µg/mL (≈ 0.552 µM)
MIC ([6]; Bacteroides fragilis, A20926, read-out: minimum inhibitory concentration (MIC)): 3.1 µg/mL (≈ 2.14 µM)
MIC ([7]; Veillonella parvula, A20010, read-out: minimum inhibitory concentration (MIC)): 0.8 µg/mL (≈ 0.552 µM)
MIC ([8]; Staphylococcus aureus, 209P): 0.4 µg/mL (≈ 0.276 µM)
MIC ([9]; Bacteroides fragilis, A21900, read-out: minimum inhibitory concentration (MIC)): 6.3 µg/mL (≈ 4.35 µM)
MIC [10]: 1.6 µg/mL (≈ 1.1 µM)
MIC ([11]; Pseudomonas aeruginosa, D113, read-out: minimum inhibitory concentration (MIC)): > 100 µg/mL
MIC ([12]; Fusobacterium necrophorum, A20013, read-out: minimum inhibitory concentration (MIC)): > 100 µg/mL
MIC ([13]; Staphylococcus aureus, A22421, read-out: minimum inhibitory concentration (MIC)): 0.8 µg/mL (≈ 0.552 µM)
MIC (Proteus vulgaris A9436; Proteus vulgaris, A9436, read-out: minimum inhibitory concentration (MIC)): > 100 µg/mL
MIC ([14]; Staphylococcus aureus, A20610, read-out: minimum inhibitory concentration (MIC)): 0.8 µg/mL (≈ 0.552 µM)
MIC ([15]; Staphylococcus aureus, A20239, read-out: minimum inhibitory concentration (MIC)): 1.6 µg/mL (≈ 1.1 µM)
MIC (Sarcina lutea PCI-1001; PCI1001, read-out: minimum inhibitory concentration (MIC)): 0.4 µg/mL (≈ 0.276 µM)
MIC ([16]; Bacteroides fragilis, CUH9, read-out: minimum inhibitory concentration (MIC)): 50 µg/mL (≈ 34.5 µM)
MIC ([17]; A22650, read-out: minimum inhibitory concentration (MIC)): 0.8 µg/mL (≈ 0.552 µM)
MIC ([18]; Peptostreptococcus anaerobius, A21905, read-out: minimum inhibitory concentration (MIC)): 0.4 µg/mL (≈ 0.276 µM)
MIC ([19]; Bacteroides fragilis, A209281, read-out: minimum inhibitory concentration (MIC)): 3.1 µg/mL (≈ 2.14 µM)
MIC ([20]; Staphylococcus aureus): 0.8 µg/mL (≈ 0.552 µM)
MIC ([21]; Bacteroides fragilis, A22695, read-out: minimum inhibitory concentration (MIC)): 25 µg/mL (≈ 17.3 µM)
MIC ([22]; A21970, read-out: minimum inhibitory concentration (MIC)): > 100 µg/mL
MIC (Proteus mirabilis A9554; Proteus mirabilis, A9554, read-out: minimum inhibitory concentration (MIC)): > 100 µg/mL
MIC [23]: < 0.05 µg/mL
MIC ([24]; Klebsiella pneumoniae, D11, read-out: minimum inhibitory concentration (MIC)): > 100 µg/mL
MIC ([25]; Bacteroides fragilis, A22533, read-out: minimum inhibitory concentration (MIC)): 50 µg/mL (≈ 34.5 µM)
MIC ([26]; Bacteroides fragilis, CUH24, read-out: minimum inhibitory concentration (MIC)): 25 µg/mL (≈ 17.3 µM)
